Consider 7 compounds from patent US7858650B2, “Medicinal composition for inhalation” (Ono Pharmaceutical Co., Ltd., priority 2004, dated 2010).

Common to all, as to type: in vivo
The test system of series [1] is histamine-induced airway contractile response. Put plainly: Inhibitory activity on histamine-induced airway contractile response and hypotensive activity, intravenous or inhalation administration. As to conditions: anesthetized guinea pig, histamine 10 μg/kg i.v.; inhalation (5 minutes, nebulizer) versus intravenous administration; FIG. 1. The procedure:
(1) Inhibitory Activity on Histamine-Induced Airway Contractile Response and Hypotensive Activity of Intravenous Administration or Inhalation Administration in Guinea Pig
A guinea pig anesthetized with sodium pentobarbital (75 mg/kg, i.p.) was treated with gallamine (10 mg/kg, i.v.), and an experiment was carried out under artificial respiration. As an airway contraction inducing substance, histamine (10 μg/kg, i.v.) was used, and the airway contractile response was determined by the Konzett & Roessler method (Konzett, H., Roessler, R. Versuchsanordnung zu untersuchungen ander Bronchial-muskulatur. Arch Exp Pathol Pharmacol 1940; 195:71-74). Additionally, the blood pressure was also measured at the same time. A test substance was administered intravenously or by inhalation (the test substance or a physiological saline solution was atomized using an ultrasonic nebulizer and inhaled directly into the trachea for 5 minutes using an artificial respirator). An inhibition ratio of airway contraction (%) was calculated by taking the airway contraction induced by histamine before administration of the test substance or in a group administered with a physiological saline solution as 0% inhibition. The amount of blood pressure reduction (mmHg) was expressed as the amount of diastolic blood pressure reduction. […] From this, it was shown that the pharmaceutical composition for inhalation of the present invention has an inhibitory effect on airway contraction and its hypotensive effect is small.

Series [2] has as its system methacholine-induced airway contractile response. The experiment in a line: Effect of intratracheal administration on methacholine-induced airway contractile response. The note with it: guinea pig, methacholine 10 μg/kg i.v. The method, then:
(2) Effect of Compound of the Present Invention by Intratracheal Administration on Methacholine-Induced Airway Contractile Response in Guinea Pig
A test substance was intratracheally administered to a guinea pig anesthetized with GOI (laughing gas:oxygen=3:1, 3% isoflurane) using a tube for intratracheal administration. After a certain period of time, the guinea pig was anesthetized with sodium pentobarbital (50 mg/kg, i.p.) and treated with gallamine (10 mg/kg, i.v.). Then, the resulting airway contractile response was determined under artificial respiration. As an airway contraction inducing substance, methacholine (10 μg/kg, i.v.) was used, and the airway contractile response was determined by the Konzett & Roessler method. A ratio of airway contraction (% of maximum) was calculated by taking the airway response obtained by closing a three-way stopcock attached to an upper part of a cannula inserted into the tracheal tube of the guinea pig as 100%.

The nature of series [3]: Hypotensive effect of a sustained prodrug of EP2 agonist (blood pressure after intratracheal administration). As to conditions: guinea pig, blood pressure measured for 12.5 minutes after administration, FIGS. 6 and 8. The procedure: (§1) (3) Bronchodilator Effect and Hypotensive Effect of a Sustained Prodrug of EP2 Agonist
(§2) A guinea pig anesthetized with sodium pentobarbital (50 mg/kg, i.p.) was treated with gallamine (10 mg/kg, i.v.), and an experiment was carried out under artificial respiration. As an airway contraction inducing substance, methacholine (10 μg/kg, i.v.) was used, and the airway contractile response was determined by the Konzett & Roessler method. Compound B was dissolved in an equimolar amount of sodium hydroxide and diluted with a physiological saline solution. Compound F was suspended in a physiological saline solution containing 2% ethanol and 10% Tween 80 to prepare a test substance. The test substance was intratracheally administered using a tube for intratracheal administration. After the administration of the test substance, the blood pressure and the airway contractile response were measured for 12.5 minutes and 3 hours, respectively. A ratio of airway contraction (%) was calculated by taking the airway response obtained by closing a three-way stopcock attached to an upper part of a cannula inserted into the tracheal tube of the guinea pig as 100% contraction. The amount of blood pressure reduction (mmHg) was expressed based on the blood pressure before administration of the test substance.

Series [4] relates to methacholine-induced airway contractile response. Put plainly: Bronchodilator effect of a sustained prodrug of EP2 agonist (methacholine-induced airway contraction, intratracheal). As to conditions: guinea pig, intratracheal administration, methacholine 10 μg/kg i.v., airway contractile response measured for 3 hours; FIGS. 7 and 9. The method, then:
as §1, §2

For the compound `CCC1([C@@H](O)C/C=C/[C@H]2CCC(=O)N2CCSc2nc(C(=O)O)cs2)CCC1` [Compound A, 2-[(2-{(2R)-2-[(1E,4S)-4-(1-ethylcyclobutyl)-4-hydroxybut-1-enyl]-5-oxopyrrolidin-1-yl}ethyl)sulfanyl]-1,3-thiazole-4-carboxylic acid], in series [1], the “dissociation between the inhibitory effect on airway contraction and the hypotensive effect” value is listed as “became larger by inhalation administration than by intravenous administration”.

In the case of `O=C(O)c1csc(SCCN2C(=O)CC[C@@H]2COc2cc(Cl)cc(Cl)c2)n1` [Compound B, 2-[(2-{(2R)-2-[(3,5-dichlorophenoxy)methyl]-5-oxopyrrolidin-1-yl}ethyl)thio]-1,3-thiazole-4-carboxylic acid], the “time after administration at which the bronchodilator effect was lost” value in series [2] (FIG. 2) was “around 3 hours”. Also, the bronchodilator effect result in series [2] (FIGS. 2 to 5) is on record as “has a bronchodilator effect”. The “dissociation between the inhibitory effect on airway contraction and the hypotensive effect” value in series [1] is listed as “became larger by inhalation administration than by intravenous administration”. `O=C(O)c1csc(SCCN2C(=O)CC[C@@H]2COc2cccc(C(F)(F)F)c2Cl)n1` [Compound C, 2-{[2-((2R)-2-{[2-chloro-3-(trifluoromethyl)phenoxy]methyl}-5-oxopyrrolidin-1-yl)ethyl]sulfanyl}-1,3-thiazole-4-carboxylic acid]: the “dissociation between the inhibitory effect on airway contraction and the hypotensive effect” value in series [1] is given as “became larger by inhalation administration than by intravenous administration”.

Consider `O=C(O)c1csc(SCCN2C(=O)CC[C@@H]2COc2cccc(OC(F)(F)F)c2)n1` [Compound D, 2-{[2-((5R)-2-oxo-5-{[3-(trifluoromethoxy)phenoxy]methyl}pyrrolidin-1-yl)ethyl]sulfanyl}-1,3-thiazole-4-carboxylic acid], for which the “dissociation between the inhibitory effect on airway contraction and the hypotensive effect” value in series [1] was “became larger by inhalation administration than by intravenous administration”. In the case of `CCCCOC(=O)c1csc(SCCN2C(=O)CC[C@@H]2COc2cc(Cl)cc(Cl)c2)n1` [Compound E, butyl 2-[(2-{(2R)-2-[(3,5-dichlorophenoxy)methyl]-5-oxopyrrolidin-1-yl}ethyl)thio]-1,3-thiazole-4-carboxylate], the “duration of activity (bronchodilator effect), comparison” value (“duration of activity” below) in series [2] (FIGS. 2 to 5) was “more prolonged duration of activity compared with Compound B”. Turning to `CCCCCCCCCCCOC(=O)c1csc(SCCN2C(=O)CC[C@@H]2COc2cc(Cl)cc(Cl)c2)n1` [Compound F, undecyl 2-[(2-{(2R)-2-[(3,5-dichlorophenoxy)methyl]-5-oxopyrrolidin-1-yl}ethyl)sulfanyl]-1,3-thiazole-4-carboxylate], the “duration of activity” value in series [2] (FIGS. 2 to 5) is “more prolonged duration of activity compared with Compound F”. In series [3], the “change of blood pressure (hypotensive effect)” value is “did not change the blood pressure”. Moreover, the “duration of bronchodilator activity, comparison” value in series [4] is listed as “prolonged duration of bronchodilator activity compared with Compound B”. For `O=C(OCCCCCCCCCCc1ccccc1)c1csc(SCCN2C(=O)CC[C@@H]2COc2cc(Cl)cc(Cl)c2)n1` [Compound G, 10-phenyldecyl 2-[(2-{(2R)-2-[(3,5-dichlorophenoxy)methyl]-5-oxopyrrolidin-1-yl}ethyl)sulfanyl]-1,3-thiazole-4-carboxylate], the “duration of activity” value in series [2] (FIGS. 2 to 5) is on record as “more prolonged duration of activity compared with Compound F”.
